Measurements taken from patent EP2265631B1, “NOVEL ANTIMICROBIAL PEPTIDES AND THEIR APPLICATION” (Ustav Organicke Chemie a Biochemie Akademie Ved Ceske …, priority 2008, dated 2009).

Assays:
[1] = system: human promyelocytic leukemia HL-60; assay: Cytostatic effect on cancer cells (e.g. MTT test); type: cell-based; conditions: 24-72 h incubation, 50% decrease in cell viability
Method: (§1) Tumor cells in suspension or adherent cells were incubated under standard conditions in appropriate culture media for 24-72 h with the peptides in 2-40 micromolar concentration. After this time, the number of living cells was determined using routine tests, e.g. MTT test. The IC50 was determined as concentration of peptides, which caused 50% decrease in cell viability in comparison to controls (no peptide present). In preliminary tests mouse lymphocytic leukemia L1210 (CCL 219), CCRF-CEM T lymphoblastoid (human acute lymphoblastic leukemia, CCL 119), human promyelocytic leukemia HL-60 (CCL 240), human cervix carcinoma HeLa S3, rat pheochromocytoma PC12, human colon adenocarcinoma SW480 (CCL-228), and normal rat epithelial cells (IEC-6, CRL-1592) from ATCC (Manassas, VA, USA), were used. […] Table 4. Cytostatic effect of selected peptides on cancer cells

[2] = system: rat pheochromocytoma PC12; assay: Cytostatic effect on cancer cells (e.g. MTT test); type: cell-based; conditions: 24-72 h incubation, 50% decrease in cell viability
Method: as §1

[3] = system: human colon adenocarcinoma SW480; assay: Cytostatic effect on cancer cells (e.g. MTT test); type: cell-based; conditions: 24-72 h incubation, 50% decrease in cell viability
Method: as §1

[4] = system: human cervix carcinoma HeLa S3; assay: Cytostatic effect on cancer cells (e.g. MTT test); type: cell-based; conditions: 24-72 h incubation, 50% decrease in cell viability; read-out: IC50 [µM] HeLaS3
Method: as §1

[5] = system: mouse lymphocytic leukemia L1210; assay: Cytostatic effect on cancer cells (e.g. MTT test); type: cell-based; conditions: 24-72 h incubation, 50% decrease in cell viability
Method: as §1

[6] = system: Staphylococcus aureus; assay: Determination of antimicrobial activity (MIC, bacterial growth in LB broth); type: cell-based; conditions: minimum inhibitory concentration (MIC) per method, 37°C, 20 h, read-out: Antimicrobial activity IC50 [µM] S.a.
Method: (§2) Antimicrobial activity was determined as a quantitative minimum inhibitory concentration (MIC) by observing bacterial growth in the presence of different concentrations of tested peptides. Mid-exponential phase bacteria were added to the solutions of the tested antimicrobial peptide at different concentrations (0.5 to 100 µM) in LB broth in multi-well plates. The plates were incubated at 37°C for 20 h while being continuously shaken in a Bioscreen C instrument (Finland). The absorbance was measured at 540 nm every 15 min and each peptide was tested at least 3 times in duplicate. 1.2.10^3 - 7.5.10^3 CFU of bacteria was routinely used in the experiments. Tetracycline in a concentration range of 0.1 - 50 µM was tested as a standard.

[7] = system: Escherichia coli; assay: as above; type: cell-based; conditions: minimum inhibitory concentration (MIC) per method, 37°C, 20 h, read-out: Antimicrobial activity IC50 [µM] E. c.
Method: as §2

[8] = system: Pseudomonnas aeruginosa; assay: as above; type: cell-based; conditions: minimum inhibitory concentration (MIC) per method, 37°C, 20 h, read-out: Antimicrobial activity IC50 [µM] P.a.
Method: as §2

[9] = system: Bacilus subtilis; assay: as above; type: cell-based; conditions: minimum inhibitory concentration (MIC) per method, 37°C, 20 h, read-out: Antimicrobial activity IC50 [µM] B.s.
Method: as §2

[10] = system: rat red blood cells; assay: Determination of hemolytic activity; type: cell-based
Method: The peptides in the concentration (1-200 µM) were incubated with rat red blood cells (5%) for 1 h at 37°C in a physiological solution at a final volume of 0.2 ml. The samples were then centrifuged for 5 min at 250 g, and the absorbance of the supernatant was determined at 540 nm. Supernatants of red blood cells suspended in physiological solution and in 0.2% TRITON X100 in physiological solution served as controls for zero hemolysis (blank) and 100% hemolysis, respectively. Table 3. Antimicrobial and hemolytic activity of melectin (I) and its synthetic analogs of formulas II/1 to II/18

[11] = system: Tumor cells; assay: Cytostatic effect on cancer cells, summary over the cell panel; type: cell-based; conditions: range over the tumor cell lines, preliminary tests
Method: as §1

[12] = system: CCRF-CEM T lymphoblastoid; assay: Cytostatic effect on cancer cells (e.g. MTT test); type: cell-based, human; conditions: 24-72 h incubation, 50% decrease in cell viability
Method: as §1

[13] = system: bacteria; assay: Antimicrobial effect, general statement; type: cell-based
Method: as §2

In the case of `CC[C@H](C)[C@H](NC(=O)[C@H](CO)NC(=O)[C@H](CC(C)C)NC(=O)[C@H](Cc1ccccc1)NC(=O)CN)C(=O)N[C@@H](CC(C)C)C(=O)N[C@@H](CCCCN)C(=O)N[C@@H](CCCCN)C(=O)N[C@H](C(=O)N[C@@H](CC(C)C)C(=O)N1CCC[C@H]1C(=O)N[C@@H](CCCCN)C(=O)N[C@H](C(=O)N[C@@H](CCSC)C(=O)N[C@@H](C)C(=O)N[C@@H](Cc1cnc[nH]1)C(=O)N[C@@H](CCSC)C(=O)N[C@@H](CCCCN)C(N)=O)C(C)C)C(C)C` [Peptide I, H-Gly-Phe-Leu-Ser-Ile-Leu-Lys-Lys-Val-Leu-Pro-Lys-Val-Met-Ala-His-Met-Lys-NH2], the IC50 [1] is reported as > 10 µM, the IC50 [2] is reported as 10 µM and the IC50 [3] is reported as 25 µM. For the same molecule, the IC50 [4] was 18.1 µM, the IC50 [5] was > 10 µM and the IC50 [6] was 6.8 µM. For the same molecule, the IC50 [7] was 2 µM, the IC50 [8] was 18.5 µM and the IC50 [9] was 0.8 µM. For the same molecule, the “hemolytic activity (in words)” value [10] was “low hemolytic activity”, the Hemolytic activity ([10]; rat red blood cells (5%), 1 h at 37°C, peptides 1-200 µM) was > 100 µM and the IC50 [11] was 4 to 30 µM. For the same molecule, the IC50 [12] was > 10 µM and the “antimicrobial effect (in words)” value [13] was “strong antimicrobial effect”.
